# Experimental data as given in US20200163984A1, “USE OF ISOVALERYL SPIRAMYCIN I, II AND/OR III IN MANUFACTURING MEDICAMENT FOR TREATING AND/OR PREVENTING TUMOR, AND MEDICAMENT” (SHENYANG FUYANG PHARMACEUTICAL TECHNOLOGY CO., LTD., priority 2017, published 2020).
# Legend:
# [1] = test system: transplanted tumor of human glioma cell U251; assay: U251 transplanted tumor in nude mice; conditions: for Tumor Volume (mm3) (d 1): d1
# Description: U251 cells in a logarithmic growth phase were taken and subjected to a trypan blue exclusion experiment showing that the cell viability was more than 95%, then the cells were subjected to trypsinization, centrifugation, and supernatant removal. Then cell concentration was adjusted to 1×10^7/ml with matrigel, then each nude mouse was inoculated subcutaneously with 0.2 ml of cells at its right armpit and recorded as the first day of inoculation. When the tumor grows to be greater than or equal to 100 mm^3, the mice were randomly divided into 11 groups with 6 mice in each group: a model group, a cyclophosphamide group, isovaleryl spiramycin I groups with doses of 25, 50 and 100 mg/kg, isovaleryl spiramycin II groups with doses of 25, 50 and 100 mg/kg, and isovaleryl spiramycin III groups with doses of 25, 50 and 100 mg/kg. Each group was continuously administered intragastrically for 30 days with a dose of 20 ml/kg. The mice were sacrificed the next day after drug withdrawal and the indicators were tested. The long diameter and short diameter of the tumor, and the body weight of each mouse were recorded every 3 days from drug administration to nude mouse sacrifice.
# The body weight of the nude mice and the long diameter (a) and short diameter (b) of the transplanted tumor were measured every 3 days, and the tumor volume (v), relative tumor volume (RTV) and relative tumor proliferation rate (T/C) are calculated respectively according to the following formulas, wherein V=a×b^2/2; RTV=V/V0 (V0 is the tumor volume before administration, V is the tumor volume before sacrifice), and T/C (%)=treatment group RTV/model control group RTV×100%.
# Each mouse was weighed and sacrificed. After the tumor was completely stripped off from the body of the mouse, the non-tumor tissues such as blood stains and fat were removed to weigh the tumor and calculate the tumor growth inhibition rate. The average tumor weight of each group of mice is used as an indicator of efficacy. Tumor growth inhibition rate (%)=(1−the average tumor weight of the treatment group/the average tumor weight of the model group)×100%.
# [2] = Thymus index and spleen index of H22 liver cancer tumor-bearing mice
# Description: In the H22 liver cancer model, the mice inoculated with the tumor were randomly divided into groups with 10 mice in each group on the next day of inoculation. The groups included: a model control group, a positive drug cyclophosphamide control group (CTX, 26 mg/kg), isovaleryl spiramycin I groups with doses of 13, 26 and 52 mg/kg; isovaleryl spiramycin II groups with doses of 13, 26 and 52 mg/kg; isovaleryl spiramycin III groups with doses of 13, 26 and 52 mg/kg. Each group was continuously administered intragastrically for 7 days with a dose of 20 ml/kg.
# [3] = test system: NK cell activity of spleen cells against K562 cells; assay: Natural killer (NK) cell activity of Lewis lung cancer tumor-bearing mice; assay type: in vivo, C57BL/6 mouse
# Description: In the Lewis lung cancer model, the mice inoculated with the tumor were randomly divided into groups with 10 mice in each group the next day of inoculation. The groups included: a model control group, a positive drug cyclophosphamide control group (CTX, 30 mg/kg), isovaleryl spiramycin I groups with doses of 13, 26 and 52 mg/kg; isovaleryl spiramycin II groups with doses of 13, 26 and 52 mg/kg; isovaleryl spiramycin III groups with doses of 13, 26 and 52 mg/kg. Each group was continuously administered intragastrically for 15 days with a dose of 20 ml/kg.
# The serum-free RPMI 1640 medium was placed in a dish, and then the dish was placed on ice. The spleen was aseptically taken and gently ground with a sterile glass slide to prepare a single cell suspension. The single cell suspension was filtered with a double-layer sterile gauze, washed twice with serum-free RPMI1640 medium, and centrifuged at 1,500 rpm for 5 min to remove the obtained supernatant. 2 mL of red blood cell lysate was added to the treated suspension, the mixture was allowed to stand for 2 min, and then 8 mL of RPMI 1640 medium was added, centrifuging was performed at 1,500 rpm for 5 min to remove the obtained supernatant, and then washing was performed twice with the RPMI 1640 medium. […] A single cell suspension was prepared by using a RPMI 1640 medium containing 10% fetal bovine serum.
# The spleen cell suspension was taken, and the cell density was adjusted to 1×10^7/mL (effector cells). A suspension of K562 cells was prepared with a cell density of 1×10^5/mL (target cells). Each mouse was set with: A. effector cells:target cell well (quantity ratio 20:1) to which […] of spleen cell suspension and 100 μL of K562 cell suspension were added; B. an effector cell control well to which 100 μL of spleen cell suspension and 100 μL of RPMI 1640 medium were added; and C. a target cell control well to which 100 μL of K562 cell suspension and 100 μL of RPMI 1640 medium were added. The above cells were added to a 96-well plate. After the 96-well plate was transferred to a saturated humidity condition with a volume fraction of 5% CO2 at 37° C. for incubation for 22 h, 10 μL of MTT solution (5 g/L) was added to each well, and incubation was continued to be performed for 4 hours under the same conditions, then the culture was terminated. 100 μl of a triple solution (SDS 10 g, 10M HCl 0.1 mL, isobutanol 5 mL, diluted with distilled water to 100 mL) was added, and the plate was shaken for 10 min to fully dissolve the crystals, and the Optical Density (OD) of each well at 490 nm was measured, and the NK cell activity was calculated. NK cell activity (%)=[TO−(S−E)]/TO×100%, wherein TO is the Optical Density of the target cell control well, S is the Optical Density of the effector cell control well, and E is the Optical Density of the effector cell.
# [4] = Spleen index of A549 lung cancer tumor-bearing mice; conditions: n = 6
# [5] = U251, high dose (100 mg/kg in method) i.g. 30 days
# [6] = U251, low dose (25 mg/kg in method) i.g. 30 days
# [7] = U251, medium dose (50 mg/kg in method) i.g. 30 days
compound,measurement,setting,value
"CCC(=O)O[C@@H]1CC(=O)O[C@H](C)C/C=C/C=C/[C@H](O[C@H]2CC[C@H](N(C)C)[C@@H](C)O2)[C@H](C)C[C@H](CC=O)[C@H](O[C@@H]2O[C@H](C)[C@@H](O[C@H]3C[C@@](C)(O)[C@@H](OC(=O)CC(C)C)[C@H](C)O3)[C@H](N(C)C)[C@H]2O)[C@H]1OC [Isovaleryl spiramycin III, isovaleryl spiramycin III]",Relative Tumor Proliferation Rate (T/C),[1]; [5],41.10%
same,tumor growth inhibition rate,[1]; [5],59.56%
same,Relative Tumor Proliferation Rate (T/C),[1]; [6],68.16%
same,tumor growth inhibition rate,[1]; [6],15.45%
same,tumor volume and relative tumor volume compared with the model group,"[1]; U251, low, medium and high doses, P<0.05",significantly lower
same,Relative Tumor Proliferation Rate (T/C),[1]; [7],54.34%
same,tumor growth inhibition rate,[1]; [7],32.74%
same,Inhibition Rate (%),"[1]; U251 nude mice, 25 mg/kg",15.45%
same,Relative Tumor Proliferation Rate (T/C),"[1]; U251 nude mice, 25 mg/kg",68.16%
same,Relative Tumor Volume (RTV),"[1]; U251 nude mice, 25 mg/kg",13.47 ± 1.67
same,Tumor Weight,"[1]; U251 nude mice, 25 mg/kg",1.17 ± 0.11 g
same,Tumor Volume (mm3) (d 1),"[1]; U251 nude mice, 25 mg/kg",124.24 ± 10.18 mm3
same,Tumor Volume (mm3) (d30),"[1]; U251 nude mice, 25 mg/kg",1413.41 ± 221.90 mm3
same,Inhibition Rate (%),"[1]; U251 nude mice, 50 mg/kg",32.74%
same,Relative Tumor Proliferation Rate (T/C),"[1]; U251 nude mice, 50 mg/kg",54.34%
same,Relative Tumor Volume (RTV),"[1]; U251 nude mice, 50 mg/kg",12.63 ± 1.27
same,Tumor Weight,"[1]; U251 nude mice, 50 mg/kg",0.93 ± 0.12 g
same,Tumor Volume (mm3) (d 1),"[1]; U251 nude mice, 50 mg/kg",121.24 ± 9.15 mm3
same,Tumor Volume (mm3) (d30),"[1]; U251 nude mice, 50 mg/kg",1096.57 ± 173.49 mm3
same,Inhibition Rate (%),"[1]; U251 nude mice, 100 mg/kg",59.56%
same,Relative Tumor Proliferation Rate (T/C),"[1]; U251 nude mice, 100 mg/kg",41.10%
same,Relative Tumor Volume (RTV),"[1]; U251 nude mice, 100 mg/kg",10.96 ± 0.82
same,Tumor Weight,"[1]; U251 nude mice, 100 mg/kg",0.56 ± 0.05 g
same,Tumor Volume (mm3) (d 1),"[1]; U251 nude mice, 100 mg/kg",120.86 ± 6.34 mm3
same,Tumor Volume (mm3) (d30),"[1]; U251 nude mice, 100 mg/kg",832.79 ± 182.98 mm3
same,mouse weight compared with the model group,"[1]; mouse, in vivo",no significant changes
same,Body Weight (g) (d1),"[1]; mouse, in vivo, 25 mg/kg",20.96 ± 0.58 g
same,Body Weight (g) (d30),"[1]; mouse, in vivo, 25 mg/kg",20.70 ± 0.51 g
same,Body Weight (g) (d1),"[1]; mouse, in vivo, 50 mg/kg",21.25 ± 0.53 g
same,Body Weight (g) (d30),"[1]; mouse, in vivo, 50 mg/kg",21.10 ± 0.60 g
same,Body Weight (g) (d1),"[1]; mouse, in vivo, 100 mg/kg",21.33 ± 0.62 g
same,Body Weight (g) (d30),"[1]; mouse, in vivo, 100 mg/kg",21.03 ± 0.55 g
same,Spleen Index (%),[2]; dose 13 mg/kg,0.68 ± 0.15%
same,Thymus Index (%),[2]; dose 13 mg/kg,0.15 ± 0.06%
same,Spleen Index (%),[2]; dose 26 mg/kg,0.66 ± 0.21%
same,Thymus Index (%),[2]; dose 26 mg/kg,0.15 ± 0.05%
same,Spleen Index (%),[2]; dose 52 mg/kg,0.65 ± 0.26%
same,Thymus Index (%),[2]; dose 52 mg/kg,0.13 ± 0.02%
same,NK Cell Activity,[3]; 13 mg/kg,48.9 ± 6.6%
same,NK Cell Activity,[3]; 26 mg/kg,46.0 ± 11.8%
same,NK Cell Activity,[3]; 52 mg/kg,49.8 ± 6.2%
same,NK cell activity compared with the control group,"[3]; 13, 26 and 52 mg/kg, P<0.01",significantly increase
same,Spleen Index (%),[4]; dose 13 mg/kg,0.32 ± 0.02%
same,Spleen Index (%),[4]; dose 26 mg/kg,0.33 ± 0.11%
same,Spleen Index (%),[4]; dose 52 mg/kg,0.35 ± 0.09%
